Columns and labels:
TBK1 [1] = molecular target: T1, TBK1 (Homo sapiens (Human), UniProt Q9UHD2); experiment: In vitro TBK1 degradation assay, Panc02.13 cells (compounds 3-33), immunoblot; assay type: cell-based; conditions: TBK1 degradation, Panc02.13 cells, 16 h, mean of ≥ 2 determinations; for DC50: read-out: DC50 (concentration at which 50% degradation is observed)
Experimental: In vitro degradation assay protocol for compounds 3-33: Panc02.13 cells were purchased from ATCC and cultured in RPMI-1640 (Gibco), supplemented with 15% FBS (ATCC) and 10 Units/mL human recombinant insulin (Gibco). PROTAC treatments were carried out in 12-well plates for 16 h. TLR3 agonist Poly I:C (Invivogen; tlr1-pic) was added for the final 3 h. Cells were harvested, and lysed in RIPA buffer (50 mM Tris pH8, 150 mM NaCl, 1% Tx-100, 0.1% SDS, 0.5% Sodium Deoxycholate) supplemented with protease and phosphatase inhibitors. Lysates were clarified at 16,000 g for 10 minutes, and supernatants were separated by SDS-PAGE. Immunoblotting was performed using standard protocols. The antibodies used were TBK1 (Cell Signaling#3504), pIRF3 (abcam#ab76493), and GAPDH (Cell Signaling#5174).

[2] = molecular target: Von Hippel-Lindau (VHL) E3 ligase (Homo sapiens (Human), UniProt P40337); experiment: VHL binding, FP assay; conditions: affinity of the VHL ligand component with side chain R2
TBK1 [3] = molecular target: T1, TBK1; experiment: In vitro TBK1 degradation assay, MDA MB 231 cells (compounds 34-57), immunoblot; assay type: cell-based; conditions: 1 uM compound, 16 h, read-out: % TBK1 remaining at 1 uM Cmpd
Experimental: MDA MB 231 cells were purchased from ATCC and cultured in RPMI-1640 (Gibco), supplemented with 10% FBS (Gibco). PROTAC treatments were carried out in 24-well plates for 16 h. Cells were harvested, and lysed in RIPA buffer (50 mM Tris pH8, 150 mM NaCl, 1% Tx-100, 0.1% SDS, 0.5% Sodium Deoxycholate) supplemented with protease and phosphatase inhibitors. Lysates were clarified at 16,000 g for 10 minutes, and supernatants were separated by SDS-PAGE. Immunoblotting was performed using standard protocols. The antibodies used were TBK1 (Cell Signaling#3504) and GAPDH (Cell Signaling#5174).

T1 sequence (Q9UHD2 whole entry): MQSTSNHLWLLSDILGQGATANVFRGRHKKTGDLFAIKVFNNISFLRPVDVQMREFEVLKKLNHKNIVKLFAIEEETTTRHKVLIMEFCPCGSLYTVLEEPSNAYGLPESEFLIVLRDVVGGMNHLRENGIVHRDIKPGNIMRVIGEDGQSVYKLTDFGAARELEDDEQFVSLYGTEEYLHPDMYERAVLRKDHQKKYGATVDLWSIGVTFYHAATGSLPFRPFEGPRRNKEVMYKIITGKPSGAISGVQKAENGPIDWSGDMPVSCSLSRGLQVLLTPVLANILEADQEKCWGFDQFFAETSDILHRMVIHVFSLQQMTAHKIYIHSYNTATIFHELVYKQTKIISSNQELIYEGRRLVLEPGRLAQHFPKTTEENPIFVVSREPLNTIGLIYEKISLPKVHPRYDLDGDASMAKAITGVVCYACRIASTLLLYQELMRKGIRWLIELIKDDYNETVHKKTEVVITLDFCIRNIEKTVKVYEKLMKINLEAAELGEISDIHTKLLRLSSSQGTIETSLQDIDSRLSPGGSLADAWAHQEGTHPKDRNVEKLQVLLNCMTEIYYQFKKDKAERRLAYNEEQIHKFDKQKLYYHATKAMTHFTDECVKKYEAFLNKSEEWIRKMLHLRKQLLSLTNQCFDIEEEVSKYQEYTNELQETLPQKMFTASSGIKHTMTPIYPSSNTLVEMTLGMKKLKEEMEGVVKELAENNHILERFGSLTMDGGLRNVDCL
Von Hippel-Lindau (VHL) E3 ligase, sequence (P40337 whole entry, looked up): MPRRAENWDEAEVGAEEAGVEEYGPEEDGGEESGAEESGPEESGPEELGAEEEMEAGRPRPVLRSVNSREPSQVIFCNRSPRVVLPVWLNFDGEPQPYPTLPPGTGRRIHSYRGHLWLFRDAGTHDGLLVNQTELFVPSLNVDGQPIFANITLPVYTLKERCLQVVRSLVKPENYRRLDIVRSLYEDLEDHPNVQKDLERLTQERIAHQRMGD
Von Hippel-Lindau (VHL) E3 ligase, sequence (Q15370 whole entry partner, looked up): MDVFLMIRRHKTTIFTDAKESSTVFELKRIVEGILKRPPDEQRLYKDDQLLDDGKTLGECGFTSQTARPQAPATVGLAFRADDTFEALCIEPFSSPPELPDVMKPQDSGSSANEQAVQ
Von Hippel-Lindau (VHL) E3 ligase, sequence (Q15369 whole entry partner, looked up): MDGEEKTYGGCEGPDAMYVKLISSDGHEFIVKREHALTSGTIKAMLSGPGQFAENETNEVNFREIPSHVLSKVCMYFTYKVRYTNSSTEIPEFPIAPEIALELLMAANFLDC

Row | Compound | DC50 (TBK1 [1]) [nM] | Dmax (maximal degradation observed) (TBK1 [1]) [%] | remaining activity at 1 µM (TBK1 [3]) [%] | also measured
1 | Cc1ncsc1-c1ccc(CNC(=O)[C@@H]2C[C@@H](O)CN2C(=O)[C@@H](NC(=O)CCCCCOCCOc2ccc(Nc3ncc(Br)c(NCCCN(C)C(=O)C4CCC4)n3)cc2)C(C)(C)C)cc1 [Compound 5] | > 1000 | – | – | –
2 | Cc1ncsc1-c1ccc(CNC(=O)[C@@H]2C[C@@H](O)CN2C(=O)[C@@H](NC(=O)COCCCOCCCOc2ccc(Nc3ncc(Br)c(NCCCN(C)C(=O)C4CCC4)n3)cc2)C(C)(C)C)cc1 [Compound 6] | > 1000 | – | – | –
3 | Cc1ncsc1-c1ccc(CNC(=O)[C@@H]2C[C@@H](O)CN2C(=O)[C@@H](NC(=O)COCCOCCOCCOc2ccc(Nc3ncc(Br)c(NCCCN(C)C(=O)C4CCC4)n3)cc2)C(C)(C)C)cc1 [Compound 7] | > 1000 | – | – | –
4 | Cc1ncsc1-c1ccc(CNC(=O)[C@@H]2C[C@@H](O)CN2C(=O)[C@@H](NC(=O)COCCCOCCCCCOc2ccc(Nc3ncc(Br)c(NCCCN(C)C(=O)C4CCC4)n3)cc2)C(C)(C)C)cc1 [Compound 8] | 88 | 79 | – | –
5 | Cc1ncsc1-c1ccc(CNC(=O)[C@@H]2C[C@@H](O)CN2C(=O)[C@@H](NC(=O)COCCOCCOCCCCOc2ccc(Nc3ncc(Br)c(NCCCN(C)C(=O)C4CCC4)n3)cc2)C(C)(C)C)cc1 [Compound 9] | 71 | 86 | – | –
6 | Cc1ncsc1-c1ccc(CNC(=O)[C@@H]2C[C@@H](O)CN2C(=O)[C@@H](NC(=O)COCCOCCOCCOCCOc2ccc(Nc3ncc(Br)c(NCCCN(C)C(=O)C4CCC4)n3)cc2)C(C)(C)C)cc1 [Compound 10] | 103 | 92 | – | –
7 | Cc1ncsc1-c1ccc(CNC(=O)[C@@H]2C[C@@H](O)CN2C(=O)[C@@H](NC(=O)CCCCCOCCCCOCCCCOc2ccc(Nc3ncc(Br)c(NCCCN(C)C(=O)C4CCC4)n3)cc2)C(C)(C)C)cc1 [Compound 12] | 95 | 90 | – | –
8 | Cc1ncsc1-c1ccc(CNC(=O)[C@@H]2C[C@@H](O)CN2C(=O)[C@@H](NC(=O)COCCOCCOCCOCCOCCOc2ccc(Nc3ncc(Br)c(NCCCN(C)C(=O)C4CCC4)n3)cc2)C(C)(C)C)cc1 [Compound 13] | 29 | 96 | – | –
9 | Cc1ncsc1-c1ccc(CNC(=O)[C@@H]2C[C@@H](O)CN2C(=O)[C@@H](NC(=O)COCCOCCCCOCCCCOCCOc2ccc(Nc3ncc(Br)c(NCCCN(C)C(=O)C4CCC4)n3)cc2)C(C)(C)C)cc1 [Compound 14] | 6 | 96 | – | –
10 | Cc1ncsc1-c1ccc(CNC(=O)[C@@H]2C[C@@H](O)CN2C(=O)[C@@H](NC(=O)CCOCCCOCCCOCCCOCCCOc2ccc(Nc3ncc(Br)c(NCCCN(C)C(=O)C4CCC4)n3)cc2)C(C)(C)C)cc1 [Compound 15] | 25 | 96 | – | –
11 | Cc1ncsc1-c1ccc(CNC(=O)[C@@H]2C[C@@H](O)CN2C(=O)[C@@H](NC(=O)COCCOCCOCCOCCOCCOCCOc2ccc(Nc3ncc(Br)c(NCCCN(C)C(=O)C4CCC4)n3)cc2)C(C)(C)C)cc1 [Compound 16] | 34 | 96 | – | –
12 | Cc1ncsc1-c1ccc(CNC(=O)[C@@H]2C[C@@H](O)CN2C(=O)[C@@H](NC(=O)COCCOCCCCOCCCCOCCOCCOc2ccc(Nc3ncc(Br)c(NCCCN(C)C(=O)C4CCC4)n3)cc2)C(C)(C)C)cc1 [Compound 17] | 3 | 96 | – | –
13 | Cc1ncsc1-c1ccc(CNC(=O)[C@@H]2C[C@@H](O)CN2C(=O)CNC(=O)COCCCOCCCCOCCCOc2ccc(Nc3ncc(Br)c(NCCCN(C)C(=O)C4CCC4)n3)cc2)cc1 [Compound 29] | > 1000 | 0 | – | IC50 [2]: 106000 nM
14 | Cc1ncsc1-c1ccc(CNC(=O)[C@@H]2C[C@@H](O)CN2C(=O)[C@H](C)NC(=O)COCCCOCCCCOCCCOc2ccc(Nc3ncc(Br)c(NCCCN(C)C(=O)C4CCC4)n3)cc2)cc1 [Compound 30] | > 1000 | 34 | – | IC50 [2]: 23600 nM
15 | Cc1ncsc1-c1ccc(CNC(=O)[C@@H]2C[C@@H](O)CN2C(=O)[C@H](C(C)C)N2Cc3ccccc3C2=O)c(OCCOCCOc2ccc(Nc3ncc(Br)c(NCCCN(C)C(=O)C4CCC4)n3)cc2)c1 [Compound 34] | – | – | 41 to 80 | –
16 | Cc1ncsc1-c1ccc(CNC(=O)[C@@H]2C[C@@H](O)CN2C(=O)[C@H](C(C)C)N2Cc3ccccc3C2=O)c(OCCOCCOCCOc2ccc(Nc3ncc(Br)c(NCCCN(C)C(=O)C4CCC4)n3)cc2)c1 [Compound 35] | – | – | ≥ 81 | –
17 | Cc1ncsc1-c1ccc(CNC(=O)[C@@H]2C[C@@H](O)CN2C(=O)[C@H](C(C)C)N2Cc3ccccc3C2=O)c(OCCOCCOCCOCCOc2ccc(Nc3ncc(Br)c(NCCCN(C)C(=O)C4CCC4)n3)cc2)c1 [Compound 36] | – | – | ≥ 81 | –

Row | Compound | DC50 (TBK1 [1]) [nM] | Dmax (maximal degradation observed) (TBK1 [1]) [%] | remaining activity at 1 µM (TBK1 [3]) [%] | also measured
18 | Cc1ncsc1-c1ccc(CNC(=O)[C@@H]2C[C@@H](O)CN2C(=O)[C@H](C(C)C)N2Cc3ccccc3C2=O)c(OCCOCCOCCOCCOCCOCCOc2ccc(Nc3ncc(Br)c(NCCCN(C)C(=O)C4CCC4)n3)cc2)c1 [Compound 37] | – | – | ≥ 81 | –
19 | Cc1ncsc1-c1ccc(CNC(=O)[C@@H]2C[C@@H](O)CN2C(=O)[C@H](C(C)C)N2Cc3ccccc3C2=O)c(OCCOCCOCCOCCOCCOc2ccc(Nc3ncc(Br)c(NCCCN(C)C(=O)C4CCC4)n3)cc2)c1 [Compound 38] | – | – | ≥ 81 | –
20 | Cc1ncsc1-c1ccc(CNC(=O)[C@@H]2C[C@@H](O)CN2C(=O)[C@H](C(C)C)N2Cc3ccccc3C2=O)c(OCCCCOc2ccc(Nc3ncc(Br)c(NCCCN(C)C(=O)C4CCC4)n3)cc2)c1 [Compound 39] | – | – | ≥ 81 | –
21 | Cc1ncsc1-c1ccc(CNC(=O)[C@@H]2C[C@@H](O)CN2C(=O)[C@H](C(C)C)N2Cc3ccccc3C2=O)c(OCCCCOCCCCOc2ccc(Nc3ncc(Br)c(NCCCN(C)C(=O)C4CCC4)n3)cc2)c1 [Compound 40] | – | – | ≥ 81 | –
22 | Cc1ncsc1-c1ccc(CNC(=O)[C@@H]2C[C@@H](O)CN2C(=O)[C@H](C(C)C)N2Cc3ccccc3C2=O)c(OCCCOCCCOc2ccc(Nc3ncc(Br)c(NCCCN(C)C(=O)C4CCC4)n3)cc2)c1 [Compound 41] | – | – | ≥ 81 | –
23 | Cc1ncsc1-c1ccc(CNC(=O)[C@@H]2C[C@@H](O)CN2C(=O)[C@H](C(C)C)N2Cc3ccccc3C2=O)c(OCCOCCOCCCOCCOCCOc2ccc(Nc3ncc(Br)c(NCCCN(C)C(=O)C4CCC4)n3)cc2)c1 [Compound 42] | – | – | 41 to 80 | –
24 | Cc1ncsc1-c1ccc(CNC(=O)[C@@H]2C[C@@H](O)CN2C(=O)[C@H](C(C)C)N2Cc3ccccc3C2=O)c(OCCOCCCOc2ccc(Nc3ncc(Br)c(NCCCN(C)C(=O)C4CCC4)n3)cc2)c1 [Compound 43] | – | – | 41 to 80 | –
25 | Cc1ncsc1-c1ccc(CNC(=O)[C@@H]2C[C@@H](O)CN2C(=O)[C@H](C(C)C)N2Cc3ccccc3C2=O)c(OCCCOCCCCOCCCOc2ccc(Nc3ncc(Br)c(NCCCN(C)C(=O)C4CCC4)n3)cc2)c1 [Compound 44] | – | – | 41 to 80 | –
26 | Cc1ncsc1-c1ccc(CNC(=O)[C@@H]2C[C@@H](O)CN2C(=O)[C@H](C(C)C)N2Cc3ccccc3C2=O)c(OCCOCCOCCCCOCCOCCOc2ccc(Nc3ncc(Br)c(NCCCN(C)C(=O)C4CCC4)n3)cc2)c1 [Compound 45] | – | – | 41 to 80 | –
27 | Cc1ncsc1-c1ccc(CNC(=O)[C@@H]2C[C@@H](O)CN2C(=O)[C@H](C(C)C)N2Cc3ccccc3C2=O)c(OCCCOCCCOCCOc2ccc(Nc3ncc(Br)c(NCCCN(C)C(=O)C4CCC4)n3)cc2)c1 [Compound 46] | – | – | 41 to 80 | –
28 | Cc1ncsc1-c1ccc(CNC(=O)[C@@H]2C[C@@H](O)CN2C(=O)[C@H](C(C)C)N2Cc3ccccc3C2=O)c(OCCCOCCCOCCOCCCOCCCOc2ccc(Nc3ncc(Br)c(NCCCN(C)C(=O)C4CCC4)n3)cc2)c1 [Compound 48] | – | – | 0 to 40 | –
29 | Cc1cnc(Nc2cccc(OCCCOCCCCOCCCOCC(=O)N[C@H](C(=O)N3C[C@H](O)C[C@H]3C(=O)NCc3ccc(-c4scnc4C)cc3)C(C)(C)C)c2)nc1NCCCN(C)C(=O)C1CCC1 [Compound 50] | – | – | ≥ 81 | –
30 | Cc1ncsc1-c1ccc(CNC(=O)[C@@H]2C[C@@H](O)CN2C(=O)[C@@H](NC(=O)COCCCOCCCCOCCCOc2cccc(Nc3ncc(C4CC4)c(NCCCN(C)C(=O)C4CCC4)n3)c2)C(C)(C)C)cc1 [Compound 51] | – | – | ≥ 81 | –
31 | CCc1cnc(Nc2cccc(OCCCOCCCCOCCCOCC(=O)N[C@H](C(=O)N3C[C@H](O)C[C@H]3C(=O)NCc3ccc(-c4scnc4C)cc3)C(C)(C)C)c2)nc1NCCCN(C)C(=O)C1CCC1 [Compound 52] | – | – | ≥ 81 | –
32 | Cc1ncsc1-c1ccc(CNC(=O)[C@@H]2C[C@@H](O)CN2C(=O)[C@@H](NC(=O)COCCCOCCCCOCCCOc2cccc(Nc3ncc4c(n3)N(CCCN(C)C(=O)C3CCC3)CC4)c2)C(C)(C)C)cc1 [Compound 53] | – | – | ≥ 81 | –
33 | C=Cc1cnc(Nc2cccc(OCCCOCCCCOCCCOCC(=O)N[C@H](C(=O)N3C[C@H](O)C[C@H]3C(=O)NCc3ccc(-c4scnc4C)cc3)C(C)(C)C)c2)nc1NCCCN(C)C(=O)C1CCC1 [Compound 54] | – | – | 41 to 80 | –
